Source: BindingDB's records for doi:10.1021/jm0613323 (Burnham Institute For Medical Research, 2007)

Target: Receptor-type tyrosine-protein phosphatase C, CD45/PTPRC (Homo sapiens) (UniProt P08575)
Test: Inhibition of CD45 PTP by fluorescence spectrometry

Receptor-type tyrosine-protein phosphatase C, CD45/PTPRC (Homo sapiens), sequence (P08575 whole entry, looked up): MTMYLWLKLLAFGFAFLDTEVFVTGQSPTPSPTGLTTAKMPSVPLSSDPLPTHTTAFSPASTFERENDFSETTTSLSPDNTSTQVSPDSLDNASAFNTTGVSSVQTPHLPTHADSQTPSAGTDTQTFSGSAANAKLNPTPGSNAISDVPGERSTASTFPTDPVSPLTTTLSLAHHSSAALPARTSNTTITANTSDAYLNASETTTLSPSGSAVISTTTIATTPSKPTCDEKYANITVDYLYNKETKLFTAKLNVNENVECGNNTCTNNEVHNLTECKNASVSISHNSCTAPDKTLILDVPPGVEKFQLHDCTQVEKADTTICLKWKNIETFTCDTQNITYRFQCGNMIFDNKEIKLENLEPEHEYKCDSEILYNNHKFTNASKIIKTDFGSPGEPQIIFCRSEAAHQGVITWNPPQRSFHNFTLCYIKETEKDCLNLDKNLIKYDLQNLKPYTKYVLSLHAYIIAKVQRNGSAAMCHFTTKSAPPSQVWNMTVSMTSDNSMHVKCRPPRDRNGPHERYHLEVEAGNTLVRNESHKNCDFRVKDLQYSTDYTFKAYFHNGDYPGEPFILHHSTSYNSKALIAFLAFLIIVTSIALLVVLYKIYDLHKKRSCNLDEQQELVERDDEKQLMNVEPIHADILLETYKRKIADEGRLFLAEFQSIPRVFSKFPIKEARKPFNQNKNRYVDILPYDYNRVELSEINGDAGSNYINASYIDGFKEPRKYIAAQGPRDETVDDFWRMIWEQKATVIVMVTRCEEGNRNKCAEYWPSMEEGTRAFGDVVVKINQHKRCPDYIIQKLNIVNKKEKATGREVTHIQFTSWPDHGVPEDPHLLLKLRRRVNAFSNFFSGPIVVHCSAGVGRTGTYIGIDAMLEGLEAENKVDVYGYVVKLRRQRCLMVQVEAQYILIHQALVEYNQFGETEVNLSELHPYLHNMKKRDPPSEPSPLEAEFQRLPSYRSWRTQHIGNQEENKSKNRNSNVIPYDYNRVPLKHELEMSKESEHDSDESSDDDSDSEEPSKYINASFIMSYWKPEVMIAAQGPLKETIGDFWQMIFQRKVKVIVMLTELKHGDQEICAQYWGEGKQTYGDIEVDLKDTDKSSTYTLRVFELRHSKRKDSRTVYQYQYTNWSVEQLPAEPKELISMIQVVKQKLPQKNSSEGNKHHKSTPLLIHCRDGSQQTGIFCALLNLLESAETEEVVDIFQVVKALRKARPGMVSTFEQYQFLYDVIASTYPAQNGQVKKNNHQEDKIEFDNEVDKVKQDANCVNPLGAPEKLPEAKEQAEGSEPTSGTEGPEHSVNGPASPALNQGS

IC50: 1200 nM
Compound: Oc1ccc(-c2ccc(-c3nnn[nH]3)cc2Cl)cc1C12CC3CC(CC(C3)C1)C2 [5-[3'-(1-adamantyl)-2-chloro-4'-hydroxy-4-biphenyl]-1H-tetrazole]
